Measurements taken from patent US20250186627A1, “RADIOLABELED COMPOUNDS TARGETING THE PROSTATE-SPECIFIC MEMBRANE ANTIGEN” (PROVINCIAL HEALTH SERVICES AUTHORITY, priority 2022, published 2025).
*1 amine or outer side, *2 acyl side, *3 side chain or, on linkers, in order; H or OH if unused. Where a SMILES comes first, the peptide text is derived from it. [ ]: non-standard residue; d: D form. The star is where a group is joined. ξ: configuration not given here. DOTA = O=C(O)CN1CCN(CC(=O)O)CCN(CC(=O)*)CCN(CC(=O)O)CC1; Butanoyl(4-(4-MeO-phenyl)) = COc1ccc(CCCC(=O)*)cc1; ξAla(9-anthryl) = NC(Cc1c2ccccc2cc2ccccc12)C(=O)O; X2 = O=C(NC(CCCCN*)C(=O)O)NC(CC(F)C(=O)O)C(=O)O; X1 = O=C(C1CCC(CN[*:1])CC1)[*:2]; ξK = NCCCCC(N)C(=O)O

System: NRG-mice bearing LNCaP tumors
Assay: Biodistribution (and PET/SPECT imaging) in NRG-mice bearing LNCaP tumors
Type: in vivo
Details: Avg
Procedure: LNCaP cell line was obtained from ATCC (LNCaP clone FGC, CRL-1740). It was established from a metastatic site of left supraclavicular lymph node of human prostatic adenocarcinoma. Cells were cultured in PRMI 1640 medium supplemented with 10% FBS, penicillin (100 U/mL) and streptomycin (100 μg/mL) at 37° C. in a humidified incubator containing 5% CO2. Cells grown to 80-90% confluence were then washed with sterile phosphate-buffered saline (1×PBS pH 7.4) and trypsinization. The collected cells number was counted with a Hausser Scientific (Horsham, PA) Hemacytometer. Approximately 10 million LNCaP cells were inoculated into the left dorsal flank of immunocomprised NRG mice. The tumours were allowed to grow for 4-6 weeks and used for imaging and biodistribution studies when a volume of 200-600 mm^3 was reached.
PET imaging experiments were conducted using Siemens Inveon micro PET/CT scanner. SPECT imaging experiments were conducted using an MILabs micro SPECT/CT scanner. Each tumor bearing mouse was injected 4-6 MBq of ^68Ga or 18.5 MBq of ^177Lu labeled tracer through the tail vein under anesthesia (2% isoflurane in oxygen). The mice were allowed to recover and roam freely in their cage. At pre-defined time point, the mice were sedated again with 2% isoflurane in oxygen inhalation and positioned in the scanner. A 10-min CT scan was conducted first for localization and attenuation correction after segmentation for reconstructing the PET or SPECT images. Then, a 10-min static PET imaging or a one hour (30 min×2 frames) of static SPECT scan was performed to determined uptake in tumor and other organs. The mice were kept warm by a heating pad during acquisition.
For biodistribution studies, the mice were injected with the radiotracer as described above. The mice were anesthetized with 2% isoflurane inhalation, and euthanized by CO2 inhalation. Blood was withdrawn immediately from the heart, and the organs/tissues of interest were collected. The collected organs/tissues were weighed and counted using a Perkin Elmer (Waltham, MA) Wizard2 2480 gamma counter. The uptake in each organ/tissue was normalized to the injected dose (radioactivity) using a standard curve, and expressed as the percentage of the injected dose per gram of tissue (% ID/g).

SMILES: COc1ccc(CCCC(=O)NCC(=O)NC(CCCCNC(=O)CN2CCN(CC(=O)[O-])CCN(CC(=O)[O-])CCN(CC(=O)[O-])CC2)C(=O)NCC(=O)NCC2CCC(C(=O)NC(Cc3c4ccccc4cc4ccccc34)C(=O)NCCCCC(NC(=O)NC(CC(F)C(=O)O)C(=O)O)C(=O)O)CC2)cc1.[177Lu+3] (stereo not drawn) [^177Lu-CCZ02008] ({Butanoyl(4-(4-MeO-phenyl))}-G[ξK](DOTA)G[X1][ξAla(9-anthryl)]-X2)
- Biodistribution: Adrenal gland (4 h p.i.): 5.91 % ID/g
- Biodistribution: Blood (4 h p.i.): 24.97 % ID/g
- Biodistribution: Bone (4 h p.i.): 1.49 % ID/g
- Biodistribution: Brain (4 h p.i.): 0.47 % ID/g
- Biodistribution: Fat (4 h p.i.): 2.63 % ID/g
- Biodistribution: Heart (4 h p.i.): 5.42 % ID/g
- Biodistribution: Intestine (4 h p.i.): 1.87 % ID/g
- Biodistribution: LNCaP tumor (4 h p.i.): 21.30 % ID/g
- Biodistribution: Lacrimal gland (4 h p.i.): 1.44 % ID/g
- Biodistribution: Liver (4 h p.i.): 4.26 % ID/g
- Biodistribution: Lungs (4 h p.i.): 10.19 % ID/g
- Biodistribution: Muscle (4 h p.i.): 1.75 % ID/g
- Biodistribution: Pancreas (4 h p.i.): 2.20 % ID/g
- Biodistribution: Salivary gland (4 h p.i.): 4.23 % ID/g
- Biodistribution: Seminal gland (4 h p.i.): 1.53 % ID/g
- Biodistribution: Spleen (4 h p.i.): 2.15 % ID/g
- Biodistribution: Stomach (4 h p.i.): 1.11 % ID/g
- Biodistribution: Testes (4 h p.i.): 3.83 % ID/g
- Biodistribution: Thyroid (4 h p.i.): 4.29 % ID/g
- Biodistribution: Urine (4 h p.i.): 76.61 % ID/g
- Biodistribution: kidney (4 h p.i.): 10.56 % ID/g
- Biodistribution: Adrenal gland (24 h p.i.): 2.39 % ID/g
- Biodistribution: Blood (24 h p.i.): 4.37 % ID/g
- Biodistribution: Bone (24 h p.i.): 0.36 % ID/g
- Biodistribution: Brain (24 h p.i.): 0.09 % ID/g
- Biodistribution: Fat (24 h p.i.): 0.71 % ID/g
- Biodistribution: Heart (24 h p.i.): 1.27 % ID/g
- Biodistribution: Intestine (24 h p.i.): 0.59 % ID/g
- Biodistribution: LNCaP tumor (24 h p.i.): 38.57 % ID/g
- Biodistribution: Lacrimal gland (24 h p.i.): 0.12 % ID/g
- Biodistribution: Liver (24 h p.i.): 1.16 % ID/g
- Biodistribution: Lungs (24 h p.i.): 2.49 % ID/g
- Biodistribution: Muscle (24 h p.i.): 0.40 % ID/g
- Biodistribution: Pancreas (24 h p.i.): 0.62 % ID/g
- Biodistribution: Salivary gland (24 h p.i.): 1.38 % ID/g
- Biodistribution: Seminal gland (24 h p.i.): 0.38 % ID/g
- Biodistribution: Spleen (24 h p.i.): 0.86 % ID/g
- Biodistribution: Stomach (24 h p.i.): 0.48 % ID/g
- Biodistribution: Testes (24 h p.i.): 1.86 % ID/g
- Biodistribution: Thyroid (24 h p.i.): 1.54 % ID/g
- Biodistribution: Urine (24 h p.i.): 28.57 % ID/g
- Biodistribution: kidney (24 h p.i.): 7.55 % ID/g
- Biodistribution: Adrenal gland (72 h p.i.): 2.59 % ID/g
- Biodistribution: Blood (72 h p.i.): 0.42 % ID/g
- Biodistribution: Bone (72 h p.i.): 0.26 % ID/g
- Biodistribution: Brain (72 h p.i.): 0.03 % ID/g
- Biodistribution: Fat (72 h p.i.): 0.39 % ID/g
- Biodistribution: Heart (72 h p.i.): 0.37 % ID/g
- Biodistribution: Intestine (72 h p.i.): 0.15 % ID/g
- Biodistribution: LNCaP tumor (72 h p.i.): 38.46 % ID/g
- Biodistribution: Lacrimal gland (72 h p.i.): 0.07 % ID/g
- Biodistribution: Liver (72 h p.i.): 0.47 % ID/g
- Biodistribution: Lungs (72 h p.i.): 0.69 % ID/g
- Biodistribution: Muscle (72 h p.i.): 0.11 % ID/g
- Biodistribution: Pancreas (72 h p.i.): 0.17 % ID/g
- Biodistribution: Salivary gland (72 h p.i.): 0.55 % ID/g
- Biodistribution: Seminal gland (72 h p.i.): 0.15 % ID/g
- Biodistribution: Spleen (72 h p.i.): 0.83 % ID/g
- Biodistribution: Stomach (72 h p.i.): 0.18 % ID/g
- Biodistribution: Testes (72 h p.i.): 0.92 % ID/g
- Biodistribution: Thyroid (72 h p.i.): 0.65 % ID/g
- Biodistribution: Urine (72 h p.i.): 4.51 % ID/g
- Biodistribution: kidney (72 h p.i.): 3.53 % ID/g
- Biodistribution: Adrenal gland (120 h p.i.): 1.39 % ID/g
- Biodistribution: Blood (120 h p.i.): 0.14 % ID/g
- Biodistribution: Bone (120 h p.i.): 0.14 % ID/g
- Biodistribution: Brain (120 h p.i.): 0.02 % ID/g
- Biodistribution: Fat (120 h p.i.): 0.22 % ID/g
- Biodistribution: Heart (120 h p.i.): 0.22 % ID/g
- Biodistribution: Intestine (120 h p.i.): 0.14 % ID/g
- Biodistribution: LNCaP tumor (120 h p.i.): 45.01 % ID/g
- Biodistribution: Lacrimal gland (120 h p.i.): 0.12 % ID/g
- Biodistribution: Liver (120 h p.i.): 0.30 % ID/g
- Biodistribution: Lungs (120 h p.i.): 0.30 % ID/g
- Biodistribution: Muscle (120 h p.i.): 0.09 % ID/g
- Biodistribution: Pancreas (120 h p.i.): 0.11 % ID/g
- Biodistribution: Salivary gland (120 h p.i.): 0.34 % ID/g
- Biodistribution: Seminal gland (120 h p.i.): 0.27 % ID/g
- Biodistribution: Spleen (120 h p.i.): 1.45 % ID/g
- Biodistribution: Stomach (120 h p.i.): 0.37 % ID/g
- Biodistribution: Testes (120 h p.i.): 0.67 % ID/g
- Biodistribution: Thyroid (120 h p.i.): 0.39 % ID/g
- Biodistribution: Urine (120 h p.i.): 3.80 % ID/g
- Biodistribution: kidney (120 h p.i.): 2.04 % ID/g
